In the experiment the target is T1, AKT1 (PKB alpha) (Homo sapiens, UniProt P31749).
T1 construct: purchased Thermo Fisher Scientific (Life Technologies) SelectScreen
Kind of experiment: SelectScreen Z'LYTE. Type of experiment: biochemical. In a few lines:
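SelectScreen broad panel; activity (Z'LYTE, Adapta) plus binding formats. ATP: Km app for CSF1R Z'LYTE; 10 for CAMK1 Adapta. Readout = % per kinase.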

These results are taken from PMC6934184, “Selective DNA-PKcs inhibition extends the therapeutic index of localized radiotherapy and chemotherapy” (The Journal of Clinical Investigation, 2019).

The structures appear in SMILES notation.

T1 sequence (P31749 whole entry): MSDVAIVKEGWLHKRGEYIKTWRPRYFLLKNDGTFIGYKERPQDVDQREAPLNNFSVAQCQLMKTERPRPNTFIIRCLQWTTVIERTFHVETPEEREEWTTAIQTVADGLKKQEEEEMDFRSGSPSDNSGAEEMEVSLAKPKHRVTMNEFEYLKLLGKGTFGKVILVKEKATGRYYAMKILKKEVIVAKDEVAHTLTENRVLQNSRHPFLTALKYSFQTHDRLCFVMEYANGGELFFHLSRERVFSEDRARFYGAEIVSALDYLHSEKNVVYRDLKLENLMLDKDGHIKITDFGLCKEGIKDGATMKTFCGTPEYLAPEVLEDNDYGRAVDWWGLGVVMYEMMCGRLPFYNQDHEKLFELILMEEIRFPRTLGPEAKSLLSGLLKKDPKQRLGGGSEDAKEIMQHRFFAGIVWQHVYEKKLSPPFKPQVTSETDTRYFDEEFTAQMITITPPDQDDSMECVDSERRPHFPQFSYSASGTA

As for `CN(C(=O)CN1CCOCC1)c1ccc2sc3c(-c4cccc5c(=O)cc(N6CC7CCC(C6)O7)oc45)cccc3c2c1` [NU5455], the inhibition (as a rule, the drop in the measured response relative to a control, in per cent) at 1 µM was 0.5%.
